# Patent publication US20100137313A1 (ASTRAZENECA AB, priority 2008, published 2010)
# Biological target: S. pneumoniae Topoisomerase IV ATPase (ParE) (Streptococcus pneumoniae serotype 4, UniProt Q59961)
# Assay: S. pneumoniae Topoisomerase IV ATPase inhibition
# Format: biochemical
# Conditions: values marked * are an average of two or more data points, read-out: % Inh (13 μM) of S. pneumoniae Topoisomerase IV ATPase
# Outline: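 ParE ATPase (1.25 nM) run with 160 μM ATP and 5 μg/ml sheared salmon sperm DNA in Tris pH 8.0, Mg2+, glycerol, DTT, Brij-35. Phosphate released read by malachite green/molybdate absorbance at 650 nm. IC50 from 10 compound concentrations; DMSO (2%) as 0% and EDTA (20 μM) as 100% inhibition.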
# Sequence of S. pneumoniae Topoisomerase IV ATPase (ParE) (Q59961 whole entry): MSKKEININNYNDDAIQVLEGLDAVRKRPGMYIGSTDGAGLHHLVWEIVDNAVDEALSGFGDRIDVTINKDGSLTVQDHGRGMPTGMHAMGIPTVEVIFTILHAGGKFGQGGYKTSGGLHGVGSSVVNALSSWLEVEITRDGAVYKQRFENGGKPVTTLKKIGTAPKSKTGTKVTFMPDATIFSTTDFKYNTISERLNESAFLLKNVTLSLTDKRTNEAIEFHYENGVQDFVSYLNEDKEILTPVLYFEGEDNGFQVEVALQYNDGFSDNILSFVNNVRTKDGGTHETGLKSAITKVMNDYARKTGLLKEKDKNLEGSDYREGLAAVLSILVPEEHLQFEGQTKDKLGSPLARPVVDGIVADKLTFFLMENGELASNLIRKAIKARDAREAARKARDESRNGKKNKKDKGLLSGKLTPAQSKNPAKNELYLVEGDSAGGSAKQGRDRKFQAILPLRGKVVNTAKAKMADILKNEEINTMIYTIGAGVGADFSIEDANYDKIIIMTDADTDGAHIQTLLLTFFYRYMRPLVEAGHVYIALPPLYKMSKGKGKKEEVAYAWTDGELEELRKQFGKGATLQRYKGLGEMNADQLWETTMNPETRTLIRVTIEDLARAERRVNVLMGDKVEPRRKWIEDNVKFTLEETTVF
row,Structure (SMILES),inhibition at 13 µM
1,"CN(C)CCCNc1nc(Nc2ccc(F)c(Cl)c2)ncc1-c1ccc(C(=O)N(C)C)s1 [Example 366, 5-(2-(3-chloro-4-fluorophenylamino)-4-(3-(dimethylamino)propylamino)pyrimidin-5-yl)-N,N-dimethylthiophene-2-carboxamide]",80.5%
2,"CCNC(=O)c1ccc(-c2cnc(Nc3ccc(F)c(Cl)c3)nc2NCCCN(C)C)s1 [Example 367, 5-(2-(3-chloro-4-fluorophenylamino)-4-(3-(dimethylamino)propylamino)pyrimidin-5-yl)-N-ethylthiophene-2-carboxamide]",104%
3,"CN(C)CCCNc1nc(Nc2ccc(F)c(Cl)c2)ncc1-c1ccc(C(=O)NCc2ccccc2)s1 [Example 368, N-benzyl-5-(2-(3-chloro-4-fluorophenylamino)-4-(3-(dimethylamino)propylamino)pyrimidin-5-yl) thiophene-2-carboxamide]",105%
4,"CN(C)CCCNc1nc(Nc2ccc(F)c(Cl)c2)ncc1-c1ccc(C(=O)N2CCCCC2)s1 [Example 369, (5-(2-(3-chloro-4-fluorophenylamino)-4-(3-(dimethylamino)propylamino)pyrimidin-5-yl)thiophen-2-yl) (piperidin-1-yl) methanone]",122%
5,"CN(C)CCCNc1nc(Nc2ccc(F)c(Cl)c2)ncc1-c1ccc(C(=O)N2CCCC(F)(F)C2)s1 [Example 370, (5-(2-(3-chloro-4-fluorophenylamino)-4-(3-(dimethylamino)propylamino)pyrimidin-5-yl)thiophen-2-yl) (3,3-difluoro-piperidin-1-yl) methanone]",129%
6,"CN(C)CCCNc1nc(Nc2ccc(F)c(Cl)c2)ncc1-c1cncc(C(=O)NCc2ccccc2)c1 [Example 371, N-benzyl-5-(2-(3-chloro-4-fluorophenylamino)-4-(3-(dimethylamino)propylamino)pyrimidin-5-yl) nicotinamide]",82.2%
7,CNC(=O)/C=C/c1cccc(-c2cnc(Nc3cc(OC)cc(C(F)(F)F)c3)nc2NCCc2ccncc2)c1 [Example 372],80.9%
8,"COc1cc(Nc2ncc(-c3cccc(/C=C/C(N)=O)c3)c(NCCc3ccncc3)n2)cc(C(F)(F)F)c1 [Example 373, (E)-3-(3-(2-(3-methoxy-5-(trifluoromethyl)phenylamino)-4-(2-(pyridin-4-yl)ethylamino)pyrimidin-5-yl)phenyl)acrylamide]",82.8%
9,"CONC(=O)/C=C/c1cccc(-c2cnc(Nc3cc(OC)cc(C(F)(F)F)c3)nc2NCCc2ccncc2)c1 [Example 374, (E)-N-methoxy-3-(3-(2-(3-methoxy-5-(trifluoromethyl)phenylamino)-4-(2-(pyridin-4-yl)ethylamino)pyrimidin-5-yl)phenyl)acrylamide]",81.2%
10,"CNC(=O)/C=C/c1cccc(-c2cnc(Nc3ccc(F)c(Cl)c3)nc2N2CCOCC2)c1 [Example 375, (E)-3-(3-(2-(3-chloro-4-fluorophenylamino)-4-morpholinopyrimidin-5-yl)phenyl)-1H-methylacrylamide]",75.9%
11,"CONC(=O)/C=C/c1cccc(-c2cnc(Nc3ccc(F)c(Cl)c3)nc2N2CCOCC2)c1 [Example 376, (E)-3-(3-(2-(3-chloro-4-fluorophenylamino)-4-morpholinopyrimidin-5-yl)phenyl)-N-methoxyacrylamide]",87.2%
12,"CC(=O)NCCCNc1nc(Nc2ccc(F)c(Cl)c2)ncc1-c1cncnc1 [Example 377, N-(3-(2-(3-chloro-4-fluorophenylamino)-5,5′-bipyrimidin-4-ylamino)propyl)acetamide]",78.9%
13,"CCOC(=O)c1cncc(-c2cnc(Nc3cc(OC)cc(-n4cnnn4)c3)nc2N2CCOCC2)c1 [Example 380, 5-[2-(3-Methoxy-5-tetrazol-1-yl-phenylamino)-4-morpholin-4-yl-pyrimidin-5-yl]-nicotinic acid ethyl ester]",37%
14,"O=C(O)c1cncc(-c2cnc(Nc3cc(F)cc(F)c3)nc2N2CCOCC2)c1 [Example 388, 5-[2-(3,5-Difluoro-phenylamino)-4-morpholin-4-yl-pyrimidin-5-yl]nicotinic acid]",72%
15,"Cc1cc(C)cc(Nc2ncc(-c3cncc(C(=O)O)c3)c(N3CCOCC3)n2)c1 [Example 389, 5-[2-(3,5-Dimethyl-phenylamino)-4-morpholin-4-yl-pyrimidin-5-yl]-nicotinic acid]",85%
16,"N#Cc1cc(Cl)cc(Nc2ncc(-c3cncc(C(=O)O)c3)c(N3CCOCC3)n2)c1 [Example 392, 5-[2-(3-Chloro-5-cyano-phenylamino)-4-morpholin-4-yl-pyrimidin-5-yl]-nicotinic acid]",74%
17,"O=C(O)c1cccc(-c2cnc(Nc3cc(F)cc(Cl)c3)nc2N2CCOCC2)n1 [Example 393, 6-[2-(3-Chloro-5-fluoro-phenylamino)-4-morpholin-4-yl-pyrimidin-5-yl]-pyridine-2-carboxylic acid]",82%
18,"COc1cc(F)cc(Nc2ncc(-c3cncc(C(=O)O)c3)c(N3CCOCC3)n2)c1 [Example 394, 5-[2-(3-Fluoro-5-methoxy-phenylamino)-4-morpholino-4-yl-pyrimidin-5-yl]-nicotinic acid]",94%
19,"COc1c(F)cc(Nc2ncc(-c3cccc(/C=C/C(=O)O)c3)c(N3CCOCC3)n2)cc1F [Example 403, (E)-3-{3-[2-(3,5-Difluoro-4-methoxy-phenylamino)-4-morpholin-4-yl-pyrimidin-5-yl]-phenyl}-acrylic acid]",30%
20,"O=C(O)/C=C/c1cccc(-c2cnc(Nc3cc(F)cc(F)c3)nc2N2CCOCC2)c1 [Example 404, (E)-3-{3-[2-(3,5-Difluoro-phenylamino)-4-morpholin-4-yl-pyrimidin-5-yl]-phenyl}-acrylic acid]",81%
21,"Cc1cc(C)cc(Nc2ncc(-c3cccc(/C=C/C(=O)O)c3)c(N3CCOCC3)n2)c1 [Example 405, (E)-3-{3-[2-(3,5-Dimethyl-phenylamino)-4-morpholin-4-yl-pyrimidin-5-yl]-phenyl}-acrylic acid]",85%
22,"N#Cc1cc(F)cc(Nc2ncc(-c3cccc(/C=C/C(=O)O)c3)c(N3CCOCC3)n2)c1 [Example 407, (E)-3-{3-[2-(3-Cyano-5-fluoro-phenylamino)-4-morpholin-4-yl-pyrimidin-5-yl]-phenyl}-acrylic acid]",86%

row,Structure (SMILES),inhibition at 13 µM
1,"N#Cc1cc(Cl)cc(Nc2ncc(-c3cccc(/C=C/C(=O)O)c3)c(N3CCOCC3)n2)c1 [Example 408, (E)-3-{3-[2-(3-Chloro-5-cyano-phenylamino)-4-morpholin-4-yl-pyrimidin-5-yl]-phenyl}-acrylic acid]",100%
2,"O=C(O)/C=C/c1cccc(-c2cnc(Nc3cc(F)cc(Cl)c3)nc2N2CCOCC2)c1 [Example 409, (E)-3-{3-[2-(3-Chloro-5-fluoro-phenylamino)-4-morpholin-4-yl-pyrimidin-5-yl]-phenyl}-acrylic acid]",77%
3,"COc1cc(F)cc(Nc2ncc(-c3cccc(/C=C/C(=O)O)c3)c(N3CCOCC3)n2)c1 [Example 410, (E)-3-{3-[2-(3-Fluoro-5-methoxy-phenylamino)-4-morpholin-4-yl-pyrimidin-5-yl]-phenyl}-acrylic acid]",100%
4,O=C(O)c1cncc(-c2cnc(Nc3ccc(F)cc3)nc2N2CCOCC2)c1 [Example 435],51%
5,O=C(O)c1cncc(-c2cnc(Nc3ccc(F)c([N+](=O)[O-])c3)nc2N2CCOCC2)c1 [Example 436],69%
6,O=C(O)c1cncc(-c2cnc(Nc3ccc(F)c(C(F)(F)F)c3)nc2N2CCOCC2)c1 [Example 437],75%
7,Cc1cc(Nc2ncc(-c3cncc(C(=O)O)c3)c(N3CCOCC3)n2)ccc1F [Example 438],81%
8,COc1cccc(Nc2ncc(-c3cncc(C(=O)O)c3)c(N3CCOCC3)n2)c1 [Example 439],62%
9,N#Cc1cc(Nc2ncc(-c3cncc(C(=O)O)c3)c(N3CCOCC3)n2)ccc1F [Example 440],85%
10,COc1cc(Nc2ncc(-c3cncc(C(=O)O)c3)c(N3CCOCC3)n2)ccc1F [Example 441],74%
11,O=C(O)c1cncc(-c2cnc(Nc3ccc(F)c(Br)c3)nc2N2CCOCC2)c1 [Example 443],85%
12,O=C(O)c1cncc(-c2cnc(Nc3ccc(F)c(S(=O)(=O)N4CCOCC4)c3)nc2N2CCOCC2)c1 [Example 444],7%
13,COc1cc(Nc2ncc(-c3cncc(C(=O)O)c3)c(N3CCOCC3)n2)cc(-n2nnnc2C)c1 [Example 445],34%
14,O=C(O)/C=C/c1cccc(-c2cnc(Nc3ccc(F)cc3)nc2N2CCOCC2)c1 [Example 447],50%
15,O=C(O)/C=C/c1cccc(-c2cnc(Nc3ccc(F)c([N+](=O)[O-])c3)nc2N2CCOCC2)c1 [Example 448],82%
16,Cc1cc(Nc2ncc(-c3cccc(/C=C/C(=O)O)c3)c(N3CCOCC3)n2)ccc1F [Example 450],86%
17,COc1cccc(Nc2ncc(-c3cccc(/C=C/C(=O)O)c3)c(N3CCOCC3)n2)c1 [Example 451],70%
18,COc1cc(Nc2ncc(-c3cccc(/C=C/C(=O)O)c3)c(N3CCOCC3)n2)ccc1F [Example 452],76%
19,COc1cc(Nc2ncc(-c3cccc(/C=C/C(=O)O)c3)c(N3CCOCC3)n2)cc([N+](=O)[O-])c1 [Example 453],92%
20,O=C(O)/C=C/c1cccc(-c2cnc(Nc3ccc(F)c(Br)c3)nc2N2CCOCC2)c1 [Example 454],92%
21,COCCOc1cccc(Nc2ncc(-c3cccc(/C=C/C(=O)O)c3)c(N3CCOCC3)n2)c1 [Example 457],28%
